In brackets after ≈: the same amount, converted by molar mass.
System: Streptococcus pneumoniae
Experiment: Antimicrobial activity against multidrug resistant Streptococcus pneumoniae serotype 19F S43 carring erm(B),mef(E) and tet(M) gene
Assay type: functional

| Compound | MIC |
| --- | --- |
| CCC[C@@H]1C[C@@H](C(=O)N[C@@H]([C@H]2O[C@H](SC)[C@H](O)[C@@H](O)[C@H]2O)[C@H](C)Cl)N(C)C1 [CLINDAMYCIN] | > 256 µg/mL |
| CC1(C)S[C@@H]2[C@H](NC(=O)Cc3ccccc3)C(=O)N2[C@H]1C(=O)O [PENICILLIN G] | 4 µg/mL (≈ 12 µM) |
| CC[C@H]1OC(=O)[C@H](C)[C@@H](O[C@H]2C[C@@](C)(OC)[C@@H](O)[C@H](C)O2)[C@H](C)[C@@H](O[C@@H]2O[C@H](C)C[C@H](N(C)C)[C@H]2O)[C@](C)(O)C[C@@H](C)C(=O)[C@H](C)[C@@H](O)[C@]1(C)O [ERYTHROMYCIN] | > 256 µg/mL |
| CN(C)[C@@H]1C(O)=C(C(N)=O)C(=O)[C@@]2(O)C(O)=C3C(=O)c4c(O)cccc4[C@@](C)(O)[C@H]3C[C@@H]12 [TETRACYCLINE] | 16 µg/mL (≈ 36 µM) |

Reference: ChEMBL document CHEMBL1629648, “New composite genetic element of the Tn916 family with dual macrolide resistance genes in a Streptococcus pneumoniae isolate belonging to clonal complex 271” (2009)
